Assay results from patent publication US11160788B2, “Caspase-1 inhibition and uses thereof for prevention and treatment of neurological conditions” (priority 2016, dated 2021).
“Also recorded” adds a separate entry of the source.

Columns and labels:
J20 mice [1] = experiment: Amyloid immunostaining and ELISA, preventive treatment of J20 mice; format: in vivo, mouse
Text: FIG. 24: Immunostaining of mice brains at 8 months of age (20 week washout) with anti-amyloid beta peptide 1-40 antiserum (a). […] (b) Quantitation of the immunopositive density of amyloid staining at 4, 8, 12, 16, and 20 weeks washout of VX-765 when mice are 4, 5, 6, 7, and 8 months respectively. (c) ELISA analyses of RIPA-soluble and formic-acid soluble hippocampal and cortical tissue protein extracts.
(§1) We directly tested whether pre-symptomatic inhibition of inflammation in a mouse genetic model of Alzheimer disease can stem the progression of memory and behavioral deficits, and Alzheimer disease-like pathology. The J20 amyloid precursor protein Swedish/Indiana mutant mouse was treated at 2 months of age for a one month period with 50 mg/Kg Caspase-1 inhibitor VX-765 (FIG. 22a).

J20 mice [2] = experiment: Iba1 and GFAP immunostaining, preventive treatment of J20 mice; format: in vivo, mouse
Text: FIG. 4: Immunostainings of mice hippocampus at 4 months of age (PREVENTION GROUP) with microglial Iba-1, astrocyte GFAP, and synaptic synaptophysin antibodies.
FIG. 25: Iba1 immunopositive staining in the mice brain hippocampus at different times of washout (a,b). All sections were immunostained together and automatically with Dako immunostainer and the number of Iba1-immunopositive […] counted stereologically. Statistics done as described in FIG. 10b. (c) Analyses of subtypes of Iba1-immunopositive microglia as described in FIG. 10c.
FIG. 26: GFAP immunopositive staining in the hippocampus of mice brains at different times of washout (a,b). All sections were immunostained together and automatically with Dako immunostainer. Quantitation of GFAP-immunopositive astrocytes was done as described above.
as §1

[3] = tested on: serum deprived human primary neurons; experiment: Neuritic beading in serum-deprived human primary neurons; format: cell-based
Description: (§2) FIG. 13: VX-765 protects CNS primary human neurons (HPN) against APP- or serum deprivation-mediated neuritic beading. (a) MTT assay with increasing dose of VX-765. (b) Fluorescent micrographs showing homogeneous distribution of EGFP in normal neurons and neuritic beading in APP-transfected neurons. (c) Percentage beading in APP-transfected or serum-deprived neurons treated 1 h before and continuously with stressor (Pre-treatment) or 48 h after stressor (post-beading treatment) with 25 or 50 μM VX-765 or with 5 μM Z-YVAD-fmk Casp1 peptide inhibitor. […] (d-e) HPN secreted or cellular Aβ42/total Aβ38+40+42 (d) (F(3,4)=12.73, p=0.0163, ANOVA, Dunnett's post-hoc compared to Serum+DMSO, *p<0.05), and (e) levels of secreted II-1β, IFN-γ, TNF-α, and II-6 from untreated (+S), serum deprived (−S), or serum-deprived human neurons treated with 25 or 50 μM VX-765.
EGFP-labeled human primary neurons were either APP^WT transfected or serum deprived. Two treatment strategies were employed to determine VX-765's effects on neuronal degeneration: our Pre-Treatment strategy looked at whether VX-765 could block neuronal degeneration when administered 1 hr prior to APP^WT transfection or serum deprivation, while our Reversal Treatment strategy looked at whether VX-765 could reverse degenerative effects when administered 48 hrs after APP^WT transfection or serum deprivation. Neurons displaying beaded morphology were counted with live imaging and measured as a percentage of the total number of eGFP+ neurons from 24-72 hrs after treatment. The irreversible caspase-1 inhibitor YVAD-fmk was used as positive control in our experiments. Results were obtained from averaging counts for at least 100 eGFP+ neurons per experiment in three independent neuron preparations.

J20 mice [4] = experiment: Synaptophysin immunostaining and synaptic gene mRNA, treated symptomatic J20 mice; format: in vivo, mouse; settings: hippocampus, immunohistochemistry, 50 mg/kg, 8 month old
Text: FIG. 12: VX-765 reverses loss of synaptophysin immunohistological staining in J20 mice. (a) Immunohistological micrographs from pre-treated 5 month old J20 and 8 month old vehicle or VX-765 treated WT or J20 mouse hippocampus and cortex. (b) Quantitative analysis comparing synaptophysin immunostaining density between WT+Vehicle (n=4), J20+Vehicle (n=4), and J20+VX-765 (n=4) in the hippocampus (F(2,9)=7.974, p=0.0102, ANOVA, Tukey's post-hoc, * p<0.05) and cortex.
(§3) To assess AD-like pathology, immunohistochemical analyses were performed to detect amyloid deposition (anti-AβF25276)^5,6, microglial (Iba1) activation^7, astrogliosis (GFAP), synaptophysin protein levels on coronal brain sections. Multiplex MSD ELISA was used to assess Aβ levels and 38,40, and 42 subtypes, and II-1β brain levels. RT-PCR was used to assess levels of human APP^Sw/Ind.

[5] = tested on: serum-deprived human neurons; experiment: Aβ42/total Aβ and cytokine levels of serum-deprived human neurons; format: cell-based
Description: as §2

J20 mice [6] = experiment: GFAP astrogliosis, treated symptomatic J20 mice brains; format: in vivo, mouse; settings: 50 mg/kg
Text: FIG. 18: ELISA measures of cytokines in vehicle-treated WT and J20 mice and VX-765-treated J20 mice. (a) Plasma levels of II-1β in mice after T3. (b) Cytokine levels in vehicle-treated WT and J20 and in VX-765-treated J20 brain hippocampi and cortex. (c) GFAP immunostaining density in vehicle-treated WT (n=6) and J20 (n=5) and in VX-765-treated J20 (n=4) brain hippocampi (F(2,12)=5.234, p=0.0232, ANOVA, Dunnett's post-hoc compared to WT+Vehicle, *p<0.05) and cortex. (d) Western blots and quantitative analyses of GFAP in vehicle-treated WT and J20 and in VX-765-treated J20 brain hippocampi and cortex.
as §3

For `CCO[C@@H]1OC(=O)C[C@@H]1NC(=O)[C@@H]1CCCN1C(=O)[C@@H](NC(=O)c1ccc(N)c(Cl)c1)C(C)(C)C` [VX-765, (S)-1-((S)-2-{[1-(4-amino-3-chloro-phenyl)-methanoyl]-amino}-3,3-dimethyl-butanoyl)-pyrrolidine-2-carboxylic acid ((2R,3S)-2-ethoxy-5-oxo-tetrahydro-furan-3-yl)-amide], the “RIPA-soluble Aβ38, Aβ40, Aβ42, total Aβ, Aβ42/total Aβ” value (J20 mice [1]; ELISA, hippocampal tissue) was “do not detect major differences”, the “formic acid soluble Aβ measures” value (J20 mice [1]; cortical) was “not reduced” and the “amyloid levels in RIPA-soluble protein extracts” value (J20 mice [1]; cortical tissue) was “no effect”. For the same compound, the “immunopositive density of amyloid staining” value (J20 mice [1]; hippocampi and cortex, 16 and 20 week washout) was “slightly less amyloid”, the “formic acid soluble Aβ42/total Aβ” value (J20 mice [1]; hippocampi, 20 week washout) was “lower” and the “RIPA-soluble Aβ42/total Aβ” value (J20 mice [1]; hippocampus, 20 week washout) was “slightly decreased”. The GFAP astrogliosis (J20 mice [2]; 4 month old J20 brains) was “possibly GFAP astrogliosis”, the “microglial Iba1 positive inflammation” value (J20 mice [2]; 4 month old J20 brains) was “reduced microglial Iba1 positive inflammation” and the “astrocytic GFAP immunostaining” value (J20 mice [2]; different times of washout) was “does not reach statistical significance”. The “Iba1 positive microglial inflammation” value (J20 mice [2]; hippocampus and cortex, different times of washout) was “strongly decreased microglial inflammation”, the subtype of microglia (J20 mice [2]; up to the 12 week washout, hippocampus and cortex) was “restores resting microglia numbers” and the neuritic beading ([3]; pre-treatment 1 h before serum deprivation) was “particularly effective in reducing neuritic beading at 72 hrs; also recorded: protected against, albeit less strongly”. For the same compound, the neuritic beading ([3]; reversal treatment 48 hrs after serum deprivation) was “neither YVAD nor VX-765 were able to reverse neuritic beading”, the synaptophysin levels (J20 mice [4]) was “increased synaptophysin levels; also recorded: significantly increased and returned to normal levels” and the “secreted and cellular Aβ42/total Aβ levels” value ([5]; 25 μM) was “reduced secreted, but not cellular”. The “secreted and cellular Aβ42/total Aβ levels” value ([5]; 50 μM) was “reduced secreted and cellular”, the “levels of II-1β, IFN-γ, TNF-α, and II-6” value ([5]; 25 and 50 μM, trend, not statistically significant) was “reduced at both concentrations” and the “GFAP astrogliosis in cortex and hippocampus” value (J20 mice [6]; after Treatment 3) was “almost returned to WT levels”. The GFAP in cortex (J20 mice [6]; densitometry, 12 injections) was “reduced in VX-765-treated J20 cortex, but the data did not reach statistical significance”.
